The text below walks through data of paper PMC10518255, “A first-in-class pan-lysyl oxidase inhibitor impairs stromal remodeling and enhances gemcitabine response and survival in pancreatic cancer” (Nature Cancer, 2023).

“And” between values parts separate entries of the source, which are not always exact repeats. Identical values can stand only once.

In assay [1] the test system is KPC CCs liver colonization. In words: Intrasplenic model of liver colonization, early administration of treatment. Conditions: for metastases/mm2: early administration, individual animals; for number of metastatic foci in liver / size of metastatic foci in liver: treatment from day 1 until day 10. Format: in vivo, mouse. As for the experimental part:
Fig. 5 PXS-5505 administered in intrasplenic models of liver colonization. a, Schematic of the intrasplenic model of liver colonization with early administration of treatment. CCs were implanted into the spleen of BALB/c-Fox1nuAusb mice under anesthesia on day 0. Treatment with 0.9% saline (vehicle); twice-weekly Gem (100 mg kg^−1 i.p.) (Gem); daily PXS-5505 at 20 mg kg^−1 i.p. (PXS-5505) or daily PXS-5505 at 20 mg kg^−1 i.p. + twice-weekly Gem at 100 mg kg^−1 i.p. (PXS-5505 + Gem) was administered from day 1. At the end point (day 10) livers were collected and H&E-stained for scoring. Representative images of H&E-stained liver (taken from one biologically independent animal). Scale bar, 100 μm. b, Representative images of H&E-stained livers from each treatment group (n = 1 FOV taken from one biologically independent animal per group). Scale bars, 100 μm. c, Quantification of metastases per mm^2 (n = 9 biologically independent animals per group). Data are mean ± s.d. […] Data are mean ± s.d. Two-tailed P values were determined by an unpaired, nonparametric t-test with a Mann–Whitney U-test correction (comparison between two groups). e, Schematic of intrasplenic model of liver colonization with late administration of treatment. CCs were implanted into the spleen of BALB/c-Fox1nuAusb mice under anesthesia on day 0. Treatment with 0.9% saline (vehicle); twice-weekly Gem (100 mg kg^−1 i.p.) (Gem); daily PXS-5505 at 20 mg kg^−1 i.p. (PXS-5505); or daily PXS-5505 at 20 mg kg^−1 i.p. + three doses of Gem (100 mg kg^−1 i.p. (PXS-5505 + Gem) was administered from day 4. Representative images of H&E-stained liver (taken from one biologically independent animal). Scale bar, 100 μm. f, Quantification of metastases at endpoint (n = 10 biologically independent animals per treatment group, n = 5 biologically independent animals at day 4 for confirmation of overt metastases). Data are mean ± s.d. P values were determined by an unpaired, nonparametric t-test with a Mann–Whitney U-test correction (comparison between two groups). g, Representative images of H&E-stained livers from each treatment group. Scale bars, 100 μm. Source data
For the intrasplenic models, animals were randomized before receiving treatment. GLP-grade PXS-5505 (20 mg kg^−1) was administered daily i.p. (starting day 0 for the early stage and day 4 for the late stage) until the end point and gemcitabine (100 mg kg^−1) was administered on days 3, 6 and 9 for the early stage and days 5, 7 and 10 for the late stage.
KPC CCs (5 × 10^5 cells per mouse in 50 μl Hanks balanced saline solution) were slowly injected into the spleens of 8-week-old female BALB/c-Fox1nuAusb mice under anesthesia (isoflurane […], O2 1 l min^−1 with vacuum) as previous described. For the duration of the study mice were kept in conventional caging with environmental enrichment, access to standard chow, water ad libitum and 12-h light–dark cycle at ambient temperature and humidity. For intrasplenic studies, mice were culled at defined end points (10 d for early colonization studies and 11 d for late colonization studies). Animals with non-tumor-related complications that led to a premature end point were censored. At the end point, mice were imaged by whole-body bioluminescent imaging using an IVIS Spectrum (Caliper LS), culled and livers were removed for additional bioluminescent imaging before formalin fixing and paraffin embedding.
The 4-µm formalin-fixed paraffin-embedded (FFPE) sections were cut and stained for H&E following standard histopathology methodologies or stained for CK19 using the Bond RX H2(30) protocol detailed above. Whole liver sections were then digitized on an Aperio slide scanner for blinded analysis. The total number of liver metastases were quantified and determined using QuPath[57].

The target in the next assay is T1, Recombinant LOXL-1 (Homo sapiens, UniProt Q08397).
T1 sequence (Q08397 96-574): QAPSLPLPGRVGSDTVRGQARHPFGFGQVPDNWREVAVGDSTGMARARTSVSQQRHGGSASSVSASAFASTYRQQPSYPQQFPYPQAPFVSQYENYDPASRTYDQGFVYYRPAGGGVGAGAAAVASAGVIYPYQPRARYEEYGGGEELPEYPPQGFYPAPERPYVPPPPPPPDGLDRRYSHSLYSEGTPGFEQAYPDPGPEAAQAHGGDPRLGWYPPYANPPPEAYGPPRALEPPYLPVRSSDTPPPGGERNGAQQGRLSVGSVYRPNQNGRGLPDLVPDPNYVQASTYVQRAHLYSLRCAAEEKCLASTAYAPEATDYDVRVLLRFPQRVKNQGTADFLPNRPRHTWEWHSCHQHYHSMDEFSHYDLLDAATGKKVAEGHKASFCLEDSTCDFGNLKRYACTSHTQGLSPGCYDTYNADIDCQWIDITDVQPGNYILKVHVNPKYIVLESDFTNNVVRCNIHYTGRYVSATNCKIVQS
In words: Lysyl oxidase enzymatic activity, fluorescence-based assay, IC50. In kind it is biochemical. The text has this:
Data are presented as mean ± s.d. […] Data presented as mean ± s.d. […] Source data TEXT PRINTED IN THE PICTURE: (b) PXS-5505: Recombinant DAO IC50 (nM): >30,000; Recombinant SSAO/VAP1 IC50 (nM): >30,000; Recombinant MAO-A IC50 (nM): >30,000; Recombinant MAO-B IC50 (nM): >30,000 | (f) PXS-5505: Fibroblast LOX IC50 (nM): 4,930; Recombinant LOXL-1 IC50 (nM): 1,590; Recombinant LOXL-2 IC50 (nM): 570; Recombinant LOXL-3 IC50 (nM): 1,800; Recombinant LOXL-4 IC50 (nM): 190
In characterizing PXS-5505, the half-maximum inhibitory concentration (IC50) values for each of the lysyl oxidase family members were determined by measuring enzymatic activity using a fluorescence-based assay. […]

For `Nc1ccn([C@@H]2O[C@H](CO)[C@@H](O)C2(F)F)c(=O)n1` [Gem, gemcitabine], in assay [1], the metastases/mm2 is 1.138e-5 /mm2 and 9.508e-5 /mm2 and 3.779e-5 /mm2 and 0 /mm2 and 1.36e-5 /mm2 and 7.872e-6 /mm2 and 6.17e-6 /mm2; the “number of metastatic foci in liver” value is listed as “fewer”; the “size of metastatic foci in liver” value is listed as “smaller”.
Regarding `Cl.Cl.NC/C=C(\F)CS(=O)(=O)c1cccc2cccnc12.O` [PXS-5505, (Z)-3-fluoro-4-(quinolin-8-ylsulfonyl)but-2-en-1-amine dihydrochloride monohydrate], at Recombinant LOXL-1, the IC50 is 1590 nM. Further, the “LOXL1 activity, IC50 determination curve” value at Recombinant LOXL-1 (log(Concentration) -4.52288, replicates, 30 µM) is -0.3767 and 0.3431 and 4.322; at Recombinant LOXL-1 (log(Concentration) -5, replicates, 10 µM), 5.837; at Recombinant LOXL-1 (log(Concentration) -5.47712, replicates, 3.333 µM) it was 31.2503 and 31.9336; on Recombinant LOXL-1 (log(Concentration) -5.95424, replicates, 1.111 µM), 60.6166 and 67.4565; at Recombinant LOXL-1 (log(Concentration) -6.43136, replicates, 0.3704 µM), 85.3221 and 90.5851; on Recombinant LOXL-1 (log(Concentration) -6.90849, replicates, 0.1235 µM) it was 93.09 and 98.6783. Besides, the “LOXL1 activity, IC50 determination curve” value at Recombinant LOXL-1 (log(Concentration) -7.38561, replicates, 0.04115 µM) is 99.6453 and 102.919; on Recombinant LOXL-1 (log(Concentration) -7.86273, replicates, 0.01372 µM), 100.176 and 100.944; on Recombinant LOXL-1 (log(Concentration) -8.33985, replicates, 0.004572 µM), 101.83 and 104.276; at Recombinant LOXL-1 (log(Concentration) -8.81697, replicates, 0.001524 µM) it was 107.666 and 104.748; on Recombinant LOXL-1 (log(Concentration) -9.29409, replicates, 0.000508 µM), 100.744 and 106.953. Besides, at Recombinant LOXL-1 (read-out: LOXL1 activity, IC50 determination curve, log(Concentration) -5, replicates), the activity at 10 µM came to 4.51%. For the same compound, on Recombinant LOXL-1 (read-out: LOXL1 activity, IC50 determination curve, log(Concentration) -5.47712, replicates), the activity at 3.333 µM worked out at 20.9%. Further, the activity at 1.111 µM on Recombinant LOXL-1 (read-out: LOXL1 activity, IC50 determination curve, log(Concentration) -5.95424, replicates) amounted to 63.8%. In addition, the activity at 0.3704 µM on Recombinant LOXL-1 (read-out: LOXL1 activity, IC50 determination curve, log(Concentration) -6.43136, replicates) is 85%. In addition, the activity at 0.1235 µM at Recombinant LOXL-1 (read-out: LOXL1 activity, IC50 determination curve, log(Concentration) -6.90849, replicates) came to 94.6%. At Recombinant LOXL-1 (read-out: LOXL1 activity, IC50 determination curve, log(Concentration) -7.38561, replicates), the activity at 0.04115 µM was found to be 99.8%. At Recombinant LOXL-1 (read-out: LOXL1 activity, IC50 determination curve, log(Concentration) -7.86273, replicates), the activity at 0.01372 µM was found to be 100%. Also, at Recombinant LOXL-1 (read-out: LOXL1 activity, IC50 determination curve, log(Concentration) -8.33985, replicates), the activity at 0.004572 µM is 101%. Further, the activity at 0.001524 µM on Recombinant LOXL-1 (read-out: LOXL1 activity, IC50 determination curve, log(Concentration) -8.81697, replicates) was found to be 101%. Also, the activity at 0.000508 µM at Recombinant LOXL-1 (read-out: LOXL1 activity, IC50 determination curve, log(Concentration) -9.29409, replicates) stood at 102%. The metastases/mm2 in assay [1] was 0.0002211 /mm2 and 8.732e-6 /mm2 and 2.758e-6 /mm2 and 0.0001431 /mm2 and 0.0002677 /mm2 and 0.0002826 /mm2 and 0.0003511 /mm2 and 0.0007717 /mm2 and 3.2079e-5 /mm2. In addition, the “number of metastatic foci in liver” value in assay [1] is reported as “small decrease in number”. In assay [1], the “size of metastatic foci in liver” value is reported as “not size of metastatic foci”.

As usually defined, the IC50 is the concentration needed to halve the response being measured.
